One assay addresses T1, hP2X3 (Homo sapiens, UniProt P56373).
T1 construct: expressed in transfected cells; host or cells: e.g. HEK293 or 1321N1
T1 sequence (P56373 1-397): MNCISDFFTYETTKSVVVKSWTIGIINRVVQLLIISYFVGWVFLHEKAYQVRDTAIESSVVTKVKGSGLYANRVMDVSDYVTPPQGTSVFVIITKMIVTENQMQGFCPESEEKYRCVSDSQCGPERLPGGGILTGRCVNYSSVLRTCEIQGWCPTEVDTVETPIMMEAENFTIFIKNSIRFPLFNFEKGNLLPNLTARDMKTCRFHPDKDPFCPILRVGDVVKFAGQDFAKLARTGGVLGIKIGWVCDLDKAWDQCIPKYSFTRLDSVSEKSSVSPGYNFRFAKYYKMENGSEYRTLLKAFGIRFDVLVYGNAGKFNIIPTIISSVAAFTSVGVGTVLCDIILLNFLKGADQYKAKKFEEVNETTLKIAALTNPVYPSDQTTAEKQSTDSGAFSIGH
Kind of assay: Calcium uptake assay (P2X antagonist assay), P2X3 homomer. Conditions: calcium uptake assay, hP2X3; read-out: IC50 hP2X3 (nM), Ca Influx. The class given is cell-based. The text has this:
(§1) The human P2X2/3 chimera clone is created as described by Neelands et al, and then cloned into an expression vector as above. Receptors are expressed in cells (e.g., HEK293 or 1321N1 (obtained from the ECACC)) via transient transfection using standard lipid mediated transfection, or by creation of stable transfectants for each receptor. For expression of the P2X2/3 heteromeric receptor, the P2X3 expression vector is stably transfected into a cell line already stably expressing P2X2. P2X2/3 heteromer function is isolated using pharmacological methods. Cell lines are maintained in DMEM+5% Glutamax, the appropriate level of selective antibiotic, and 10% heat inactivated FBS.
(§2) Functional activity of compounds at the P2X receptor is determined by measuring their ability to inhibit agonist-induced calcium influx. Compounds are tested for antagonist activity against the P2X2/3 chimera, the P2X3 homomer, or the P2X2/3 heteromer. At the start of each screening day, the agonist EC50 is determined. Compound % inhibition or IC50s are subsequently determined using a predetermined agonist concentration (EC50-90 depending on cell line) as a stimulus. The agonists used are αβMeATP, ATP, or other ATP analogs. Compounds may be tested at concentrations ranging from 1 pM to 10 μM.
(§3) To test for antagonist activity, cells expressing the appropriate receptor are seeded onto 96 or 384 well plates 18-24 hours prior to assay. […] Plates are incubated at 37° C. and then equilibrated at room temperature. Antagonism of agonist-induced calcium influx is measured using a fluorescent imaging plate reader (e.g. FLIPR^TETRA, Molecular Devices, Sunnyvale, Calif.). The assay comprises two stages: a pre-treatment phase followed by a treatment phase. Compounds may be tested as follows: For the pre-treatment phase, 50 μL of 3× concentration of test compound in HBSS is added to cells containing […], of dye loading media to achieve a final concentration of 1× test compound. For the treatment phase, at a set interval after pre-treatment (1-30 minutes), 50 μL of 1× test compound plus 4× agonist solution is added, resulting in a final concentration of 1× compound and 1× agonist. […] Responses are measured as (peak fluorescence after agonist addition) minus (baseline fluorescence prior to treatment). Percent inhibition is calculated as follows:
(§4) [formula] IC50 values are determined by analyzing dose response data in a 4 parameter logistic fit using GraphPad Prizm.

The target in the next assay is T2, hP2X2/3H (Homo sapiens, UniProt P56373+Q9UBL9).
T2 construct: expressed in transfected cells; host or cells: e.g. HEK293 or 1321N1
T2 sequence (Q9UBL9 1-471): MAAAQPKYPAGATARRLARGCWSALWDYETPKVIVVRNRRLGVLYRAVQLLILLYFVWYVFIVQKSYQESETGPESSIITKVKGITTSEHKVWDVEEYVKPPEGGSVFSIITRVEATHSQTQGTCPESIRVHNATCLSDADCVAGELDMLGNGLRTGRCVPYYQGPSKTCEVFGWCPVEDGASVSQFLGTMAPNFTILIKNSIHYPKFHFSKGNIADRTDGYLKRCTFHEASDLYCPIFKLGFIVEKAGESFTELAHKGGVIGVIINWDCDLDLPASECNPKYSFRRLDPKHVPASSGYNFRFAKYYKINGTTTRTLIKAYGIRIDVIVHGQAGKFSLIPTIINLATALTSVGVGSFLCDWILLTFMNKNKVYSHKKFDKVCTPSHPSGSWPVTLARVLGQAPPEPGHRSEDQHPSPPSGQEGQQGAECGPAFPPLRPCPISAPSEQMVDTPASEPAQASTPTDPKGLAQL
T2 sequence (P56373 1-397): T1 sequence (P56373 1-397)
As to the kind of experiment: Calcium uptake assay (P2X antagonist assay), P2X2/3 heteromer. It counts as cell-based. The following applies: calcium uptake assay, hP2X2/3H; read-out: IC50 hP2X2/3H (nM), Ca Influx.
Source text: as §1, §2, §3, §4

The text below walks through data of patent publication US8946439B2, “Amide compounds, compositions and uses thereof” (Evotec AG, priority 2008, dated 2015).

Some results are limits rather than exact numbers.

For the molecule `Cc1ccc(-c2cc(C(=O)NCc3cnc(C)nc3)cc(C(=O)N3CCN(C)CC3)c2)cc1` [Compound 25], the IC50 is under 100 nM at hP2X3 and 100 to 500 nM at hP2X2/3H.
For `Cc1ccc(-c2cc(C(=O)NC(C)c3ccc(Cl)c(S(C)(=O)=O)c3)cc(S(C)(=O)=O)c2)cc1` (stereo not shown) [Compound 26], the IC50 on hP2X3 and at hP2X2/3H was under 100 nM throughout.
With `Cc1ccc(-c2cc(C(=O)NCc3cnc(C)nc3)cc(C(=O)N3CCN(C)C(=O)C3)c2)cc1` [Compound 27], the IC50 on hP2X3 is under 100 nM; on hP2X2/3H, 501 to 1000 nM.
For `Cc1ccc(-c2cc(C(=O)NCc3cnc(C)nc3)cc(C(=O)N3CCCC3)c2)nc1` [Compound 28, 3-(5-Methylpyridin-2-yl)-N-((2-methylpyrimidin-5-yl)methyl)-5-(pyrrolidine-1-carbonyl)benzamide], the IC50 was under 100 nM on hP2X3 and 100 to 500 nM on hP2X2/3H.
Taken in the same sequence, the figures for `Cc1ccc(-c2cc(C(=O)NCc3cnc(C)nc3)cc(C(=O)N3CC(O)C3)c2)cc1` [Compound 29, 5-(3-Hydroxyazetidine-1-carbonyl)-4′-methyl-N-((2-methylpyrimidin-5-yl)methyl)biphenyl-3-carboxamide] were under 100 nM and under 100 nM.
Taken in the same sequence, the figures for `Cc1ccc(-c2cc(C(=O)NCc3cnc(C)nc3)cc(C(=O)N3CCC3)c2)cc1` [Compound 30] were under 100 nM and under 100 nM.
In the case of `Cc1ccc(-c2cc(C(=O)NCc3cnc(C)nc3)cc(C(=O)N3CC3C)c2)cc1` (stereo not shown) [Compound 31, 4′-Methyl-5-(2-methylaziridine-1-carbonyl)-N-((2-methylpyrimidin-5-yl)methyl)biphenyl-3-carboxamide], the IC50 at hP2X3 was under 100 nM; on hP2X2/3H, 501 to 1000 nM.
Take `COC1CCN(C(=O)c2cc(C(=O)NCc3cnc(C)nc3)cc(-c3ccc(C)cc3)c2)C1` (stereo not shown) [Compound 32]: the IC50 at hP2X3 and on hP2X2/3H was under 100 nM in each case.
With `Cc1ccc(-c2cc(C(=O)NCc3cnc(C)nc3)cc(C(=O)N3CCCC3C(F)(F)F)c2)cc1` (stereo not shown) [Compound 33], the IC50 on hP2X3 and on hP2X2/3H was under 100 nM each time.
Turning to `Cc1ccc(-c2cc(C(=O)NCc3cnc(C)nc3)cc(C(=O)N3CCC(F)(F)C3)c2)cc1` [Compound 34, 5-(3,3-Difluoropyrrolidine-1-carbonyl)-4′-methyl-N-((2-methylpyrimidin-5-yl)methyl)biphenyl-3-carboxamide], the IC50 at hP2X3 and on hP2X2/3H was under 100 nM each time.
In the case of `Cc1ccc(-c2cc(C(=O)N[C@H](C)c3ccc(C(F)(F)F)nc3)cc(S(C)(=O)=O)c2)cc1` [Compound 35], the IC50 at hP2X3 and at hP2X2/3H was under 100 nM in each case.
On to `Cc1ccc(-c2cc(C(=O)NCc3ccc(C)c(S(C)(=O)=O)c3)cc(S(C)(=O)=O)c2)cc1` [Compound 36], for which the IC50 at hP2X3 and at hP2X2/3H was under 100 nM in each case.
For the molecule `Cc1ccc(-c2cc(C(=O)NCc3ccc(C(F)(F)F)nc3)cc(S(C)(=O)=O)c2)cc1` [Compound 37, 4′-Methyl-5-(methylsulfonyl)-N-((6-(trifluoromethyl)pyridin-3-yl)methyl)biphenyl-3-carboxamide], the IC50 at hP2X3 and on hP2X2/3H was 100 to 500 nM throughout.
Regarding `Cc1ncc(CNC(=O)c2cc(C(=O)N3CCCC3)cc(-c3ccc(F)cc3)c2)cn1` [Compound 38], the values for the IC50 on hP2X3 and at hP2X2/3H were 100 to 500 nM and over 1000 nM, respectively.
Taken in the same sequence, the figures for `Cc1ccc(-c2cc(C(=O)NCc3cnc(C)nc3)cc(C(=O)N3CCCC3)c2)c(C#N)c1` [Compound 39, 2′-Cyano-4′-methyl-N-((2-methylpyrimidin-5-yl)methyl)-5-(pyrrolidine-1-carbonyl)biphenyl-3-carboxamide] were under 100 nM and under 100 nM.
Taken in the same sequence, the figures for `Cc1ncc(CNC(=O)c2cc(C(=O)N3CCCC3)cc(-c3ccc(Cl)cc3)c2)cn1` [Compound 40] were under 100 nM and 100 to 500 nM.
Taken in the same sequence, the figures for `CCCS(=O)(=O)c1cc(C(=O)NCc2ccc(C)c(S(C)(=O)=O)c2)cc(-c2ccc(C)cc2)c1` [Compound 41] were under 100 nM and under 100 nM.
Consider `CCCS(=O)(=O)c1cc(C(=O)N[C@@H](C)CO)cc(-c2ccc(C)cc2)c1` [Compound 42], for which the IC50 at hP2X3 is under 100 nM; at hP2X2/3H, over 1000 nM.
Take `CCCS(=O)(=O)c1cc(C(=O)NCc2cnc(C)nc2)cc(-c2ccc(C)cc2)c1` [Compound 43]: the IC50 on hP2X3 and on hP2X2/3H was under 100 nM in each case.
As for `CCCS(=O)(=O)c1cc(C(=O)NCc2ccc(C(F)(F)F)nc2)cc(-c2ccc(C)cc2)c1` [Compound 44], the IC50 on hP2X3 and on hP2X2/3H was 100 to 500 nM in each case.
For the molecule `Cc1ccc(-c2cc(C(=O)NC(C)c3ccc(Cl)c(S(C)(=O)=O)c3)cc(C(=O)N3CCCC3)c2)cc1` (stereo not shown) [Compound 45, N-(1-(4-Chloro-3-(methylsulfonyl)phenyl)ethyl)-4′-methyl-5-(pyrrolidine-1-carbonyl)biphenyl-3-carboxamide], the figures for the IC50 on hP2X3 and at hP2X2/3H were 100 to 500 nM and under 100 nM, respectively.
For `Cc1ccc(-c2cc(C(=O)N[C@H](C)c3ccc(C(F)(F)F)nc3)cc(C(=O)N3CCCC3)c2)cc1` [Compound 46], the IC50 at hP2X3 was 100 to 500 nM; on hP2X2/3H, under 100 nM.
Consider `Cc1ccc(-c2cc(C(=O)NCc3ccc(C(F)(F)F)nc3)cc(C(=O)N3CCCC3)c2)cc1` [Compound 47], for which the IC50 on hP2X3 and at hP2X2/3H was 100 to 500 nM in each case.
For `COc1ncc(CNC(=O)c2cc(C(=O)N3CCCC3)cc(-c3ccc(C)cc3)c2)cn1` [Compound 48], the IC50 at hP2X3 and at hP2X2/3H was under 100 nM in each case.
On to `Cc1ccc(-c2cc(C(=O)NCc3ccc4cccnc4c3)cc(C(=O)N3CCCC3)c2)cc1` [Compound 49, 4′-Methyl-5-(pyrrolidine-1-carbonyl)-N-(quinolin-7-ylmethyl)biphenyl-3-carboxamide], for which the IC50 at hP2X3 and on hP2X2/3H was 100 to 500 nM each time.
In the case of `Cc1ccc(-c2cc(C(=O)NCc3ccn4ccnc4c3)cc(C(=O)N3CCCC3)c2)cc1` [Compound 50], the IC50 on hP2X3 and at hP2X2/3H was under 100 nM each time.
In the case of `Cc1ccc(-c2cc(C(=O)NCc3cnc(C)cn3)cc(C(=O)N3CCCC3)c2)cc1` [Compound 51], the IC50 at hP2X3 and at hP2X2/3H was under 100 nM each time.
`Cc1ccc(-c2cc(C(=O)N[C@H](C)c3cnc(C)nc3)cc(C(=O)N3CCCC3)c2)cc1` [Compound 52]: the IC50 at hP2X3 and on hP2X2/3H was under 100 nM in each case.
Regarding `Cc1ncc(CNC(=O)c2cc(C(=O)N3CCCC3)cc(-c3ccc(F)cc3F)c2)cn1` [Compound 53], the figures for the IC50 on hP2X3 and on hP2X2/3H were 100 to 500 nM and over 1000 nM, respectively.
Taken in the same sequence, the figures for `Cc1ncc(CNC(=O)c2cc(C(=O)N3CCCC3)cc(-c3ccc(C(F)(F)F)cc3)c2)cn1` [Compound 54] were over 1000 nM and over 1000 nM.
For `CCCS(=O)(=O)c1cc(C(=O)N[C@H](C)c2cnc(C)nc2)cc(-c2ccc(C)cc2)c1` [Compound 55], the IC50 on hP2X3 and on hP2X2/3H was under 100 nM throughout.
For `CCCS(=O)(=O)c1cc(C(=O)NCc2ccc(C)nc2)cc(-c2ccc(C)cc2)c1` [Compound 56], the IC50 on hP2X3 and on hP2X2/3H was under 100 nM each time.
